Assay results: paper PMC5941067, “Novel Xanthomonas campestris Long-Chain-Specific 3-Oxoacyl-Acyl Carrier Protein Reductase Involved in Diffusible Signal Factor Synthesis” (mBio, 2018)

What was measured:
FabG1 (XCC1018) = target: T1, FabG1 (XCC1018) (Xanthomonas campestris, UniProt Q8PBU9); assay: NADPH absorbance decrease at […] nm; assay type: biochemical; conditions: hydride donor; 3-oxodecanoyl-ACP generated in situ by E. coli FabD and FabB from acyl-ACP and malonyl-CoA
T1 construct: gene fabG; full length, pET-28(b) construct (His tag), E. coli BL21(DE3)

[1] = target: T2, X. campestris pv. campestris FabH (Xanthomonas campestris, UniProt Q8PBV1); assay: coupled reaction, MALDI-TOF MS of acyl-ACP products; assay type: biochemical; conditions: co-substrate malonyl-ACP; with FabG1 or FabG2 and E. coli FabA
T2 construct: purification and tag of this protein not described in the main text
T2 sequence (Q8PBV1 whole entry): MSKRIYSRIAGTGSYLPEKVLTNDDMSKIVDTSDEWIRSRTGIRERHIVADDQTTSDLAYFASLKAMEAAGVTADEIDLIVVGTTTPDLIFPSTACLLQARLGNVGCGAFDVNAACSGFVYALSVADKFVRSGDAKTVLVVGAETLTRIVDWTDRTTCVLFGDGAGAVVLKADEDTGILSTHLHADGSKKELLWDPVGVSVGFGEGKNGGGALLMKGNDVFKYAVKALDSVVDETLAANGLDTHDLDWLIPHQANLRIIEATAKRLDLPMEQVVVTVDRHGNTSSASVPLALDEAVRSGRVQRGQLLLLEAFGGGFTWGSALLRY

T1 sequence (Q8PBU9 entry or part of it): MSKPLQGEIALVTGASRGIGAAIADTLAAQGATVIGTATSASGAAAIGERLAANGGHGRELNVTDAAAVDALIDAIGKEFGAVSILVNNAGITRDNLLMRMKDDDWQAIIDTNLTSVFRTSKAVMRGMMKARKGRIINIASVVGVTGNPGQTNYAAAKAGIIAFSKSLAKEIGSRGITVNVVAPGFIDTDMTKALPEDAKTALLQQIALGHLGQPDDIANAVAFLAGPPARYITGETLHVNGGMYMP

Compound | NADPH absorbance decrease at 340 nm (FabG1 (XCC1018)) | coupled reaction, MALDI-TOF MS of acyl-ACP products [1]
NC(=O)C1=CN([C@@H]2O[C@H](COP(=O)(O)OP(=O)(O)OC[C@H]3O[C@@H](n4cnc5c(N)ncnc54)[C@H](OP(=O)(O)O)[C@@H]3O)[C@@H](O)[C@H]2O)C=CC1 [NADPH] | The maximal rate of NADPH reduction of 3-oxodecanoyl-ACP by FabG2 | –
CCCCCCCC(=O)SCCNC(=O)CCNC(=O)[C@H](O)C(C)(C)COP(=O)(O)OP(=O)(O)OC[C@H]1O[C@@H](n2cnc3c(N)ncnc32)[C@H](O)[C@@H]1OP(=O)(O)O [octanoyl-CoA] | – | X. campestris pv. campestris FabH, octanoyl-CoA, and malonyl-ACP replaced octanoyl-ACP
